Source: ChEMBL document CHEMBL3808363, “2-(Thienothiazolylimino)-1,3-thiazolidin-4-ones inhibit cell division cycle 25 A phosphatase” (Bioorg Med Chem, 2016)
Calls of active or inactive are those of the source. The rule behind the calls is not given here.

Tests used:
[1] = target: T1, M-phase inducer phosphatase 1 (Homo sapiens, UniProt P30304); assay: (§1) Mixed type inhibition of human recombinant full length GST-tagged CDC25A transfected in Escherichia coli BL21-DE3 assessed as enzyme/substrate/inhibitor complex using 3-O-methylfluorescein phosphate as substrate at 10 uM incubated for 20 mins followed by substrate addition measured every 10 mins for 2 hrs by fluorimetric assay
T1 sequence (P30304 whole entry): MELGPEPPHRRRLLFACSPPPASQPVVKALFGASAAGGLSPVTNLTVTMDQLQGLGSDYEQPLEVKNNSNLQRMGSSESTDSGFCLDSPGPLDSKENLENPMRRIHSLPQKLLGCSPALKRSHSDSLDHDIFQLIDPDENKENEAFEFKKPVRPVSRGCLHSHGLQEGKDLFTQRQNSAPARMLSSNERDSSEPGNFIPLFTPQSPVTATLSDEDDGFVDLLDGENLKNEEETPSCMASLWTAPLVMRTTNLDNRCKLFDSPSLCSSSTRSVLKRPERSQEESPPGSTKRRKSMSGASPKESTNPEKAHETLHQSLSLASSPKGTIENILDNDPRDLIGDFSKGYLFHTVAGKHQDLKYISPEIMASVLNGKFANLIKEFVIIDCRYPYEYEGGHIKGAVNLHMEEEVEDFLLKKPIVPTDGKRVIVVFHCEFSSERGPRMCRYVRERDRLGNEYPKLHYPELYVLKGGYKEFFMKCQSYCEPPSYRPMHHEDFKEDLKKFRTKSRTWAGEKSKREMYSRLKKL

MCF7 [2] = assay: Cell cycle arrest in human MCF7 cells assessed as accumulation at subG1 phase at IC50 concentration after 48 hrs by propidium iodide staining-based flow cytometry; type: functional
MCF7 [3] = assay: Antiproliferative activity against human MCF7 cells assessed as cell viability at IC50 concentration after 48 hrs by 2',7'-dichlorofluorescin diacetate/PI staining based flow cytometry; type: functional
MDA-MB-231 [4] = assay: Cell cycle arrest in human MDA-MB-231 cells assessed as accumulation at G0/G1 phase at IC50 concentration after 48 hrs by propidium iodide staining-based flow cytometry (reference value: 57.3 +/- 0.3%); type: functional
MDA-MB-231 [5] = assay: Induction of autophagy in human MDA-MB-231 cells assessed as acidic vesicles at 8.4 uM over 3 days by acridine orange dye based flow cytometry; type: functional, cell-based
MCF7 [6] = assay: Increase in RNS levels in human MCF7 cells at IC50 concentration incubated for 24 hrs by DAF-2DA dye based flow cytometry; type: functional, cell-based
MDA-MB-231 [7] = assay: Increase in peroxynitryl radical levels in human MDA-MB-231 cells at IC50 concentration incubated for 24 hrs by DHR dye based flow cytometry; type: functional, cell-based
MDA-MB-231 [8] = assay: Cytotoxicity against human MDA-MB-231 cells assessed as inhibition of cell growth after 72 hrs by MTT assay; type: functional, cell-based; conditions: MDA-MB-231, 72 h
[9] = target: T1, M-phase inducer phosphatase 1; assay: as §1, with “at 5” for “at 10”
MCF7 [10] = assay: Induction of apoptosis in human MCF7 cells assessed as nuclear fragmentation after 24 hrs by dihydro-rhodamine 123/hoechst […] staining based UV fluorescent microscopy; type: functional, cell-based
[11] = Cytotoxicity against human HCT116 cells assessed as inhibition of cell growth after 72 hrs by MTT assay; type: functional, cell-based; conditions: HCT-116, 72 h
MDA-MB-231 [12] = assay: Induction of apoptosis in human MDA-MB-231 cells assessed as chromatin condensation after 24 to 48 hrs by DAPI staining based UV fluorescent microscopy; type: functional, cell-based
MCF7 [13] = assay: Induction of apoptosis in human MCF7 cells assessed as chromatin condensation after 24 to 48 hrs by DAPI staining based UV fluorescent microscopy; type: functional, cell-based
MDA-MB-231 [14] = assay: Cytotoxicity against human MDA-MB-231 cells assessed as inhibition of cell growth at IC50 concentration after 72 hrs by trypan blue assay; type: functional
MDA-MB-231 [15] = assay: Induction of reactive oxygen species production in human MDA-MB-231 cells at IC50 concentration up to 6 hrs by DCF-2DA dye based flow cytometry; type: functional, cell-based
MCF7 [16] = assay: Cell cycle arrest in human MCF7 cells assessed as accumulation at G2/M phase at IC50 concentration after 48 hrs by propidium iodide staining-based flow cytometry (reference value: 13.8 +/- 1%); type: functional
MDA-MB-231 [17] = assay: Cell cycle arrest in human MDA-MB-231 cells assessed as accumulation at S phase at IC50 concentration after 48 hrs by propidium iodide staining-based flow cytometry (reference value: 21.7 +/- 0.3%); type: functional
MDA-MB-231 [18] = assay: Cytostatic activity against human MDA-MB-231 cells at IC50 concentration; type: functional, cell-based
[19] = target: T1, M-phase inducer phosphatase 1; assay: as §1, with “enzyme/inhibitor” for “enzyme/substrate/inhibitor”
[20] = target: T1, M-phase inducer phosphatase 1; assay: as §1, with “as enzyme/inhibitor” for “as enzyme/substrate/inhibitor”, “at 5” for “at 10”
MCF7 [21] = assay: Cell cycle arrest in human MCF7 cells assessed as accumulation at S phase at IC50 concentration after 48 hrs by propidium iodide staining-based flow cytometry (reference value: 19.5 +/- 0.6%); type: functional
[22] = target: Cyclin-dependent kinase 1 (Homo sapiens) (UniProt P06493); assay: Effect on CDK1 phosphorylation in human MDA-MB-231 after 6 hrs by Western blot analysis
Sequence of Cyclin-dependent kinase 1 (Homo sapiens) (P06493 whole entry, looked up): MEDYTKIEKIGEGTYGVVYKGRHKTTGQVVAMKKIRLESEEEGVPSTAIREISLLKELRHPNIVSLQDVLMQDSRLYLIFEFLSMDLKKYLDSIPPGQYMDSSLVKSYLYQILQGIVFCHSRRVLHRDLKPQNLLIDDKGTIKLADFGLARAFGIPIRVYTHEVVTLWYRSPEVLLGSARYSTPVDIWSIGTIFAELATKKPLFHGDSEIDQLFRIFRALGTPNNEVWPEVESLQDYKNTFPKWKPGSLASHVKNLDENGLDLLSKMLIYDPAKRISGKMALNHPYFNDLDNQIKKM

MCF7 [23] = assay: Cytotoxicity against human MCF7 cells assessed as inhibition of cell growth after 72 hrs by MTT assay; type: functional, cell-based; conditions: MCF7, 72 h
[24] = target: T2, M-phase inducer phosphatase 1 (Homo sapiens) (UniProt P30304); assay: (§2) Inhibition of human recombinant full length GST-tagged CDC25A transfected in Escherichia coli BL21-DE3 using 3-O-methylfluorescein phosphate as substrate at 10 uM incubated for 20 mins followed by substrate addition measured every 10 mins for 2 hrs by fluorimetric assay in presence of 0.1% triton X 100
T2 sequence (whole entry): T1 sequence (P30304 whole entry)

MDA-MB-231 [25] = assay: Increase in RNS levels in human MDA-MB-231 cells at IC50 concentration incubated for 24 hrs by DAF-2DA dye based flow cytometry; type: functional, cell-based
MCF7 [26] = assay: Induction of reactive oxygen species production in human MCF7 cells at IC50 concentration up to 6 hrs by DCF-2DA dye based flow cytometry; type: functional, cell-based
[27] = target: T2, M-phase inducer phosphatase 1 (Homo sapiens); assay: as §2, with “0.5%” for “0.1%”

SMILES: COc1ccc(/C=C2/S/C(=N\c3nc4cc(-c5ccc(Cl)cc5)sc4s3)NC2=O)cc1
- Ki [1]: 5.1 µM
- Activity (MCF7 [2]): inactive
- Activity (MCF7 [3]): inactive
- Activity (MDA-MB-231 [4]): 58.3%
- Activity (MDA-MB-231 [5]): inactive
- Activity (MCF7 [6]): Active
- Activity (MDA-MB-231 [7]): Active
- IC50 (MDA-MB-231 [8]): 8.4 µM
- Ki [9]: 12.2 µM
- Activity (MCF7 [10]): inactive
- IC50 [11]: 9.2 µM
- Activity (MDA-MB-231 [12]): inactive
- Activity (MCF7 [13]): inactive
- growth inhibition (GI) (MDA-MB-231 [14]): 70%
- Activity (MDA-MB-231 [15]): inactive
- Activity (MCF7 [16]): 15.8%
- Activity (MDA-MB-231 [17]): 25.8%
- Activity (MDA-MB-231 [18]): Active
- Ki [19]: 4.8 µM
- Ki [20]: 37.1 µM
- Activity (MCF7 [21]): 25.3%
- Activity [22]: inactive
- IC50 (MCF7 [23]): 5.1 µM
- inhibition [24]: 86.2%
- Activity (MDA-MB-231 [25]): Active
- Activity (MCF7 [26]): inactive
- inhibition [27]: 97.5%
